Data taken from PMC9389372 (RSC Advances, 2022).

How the values were obtained:
Assay type in all cases: biochemical
[1] = molecular target: T1, MAO-A (Homo sapiens, UniProt P21397); assay: MAO-A inhibition, in vitro fluorometric method; settings: for inhibition at 100 µM / inhibition at 1000 µM: read-out: MAO-A % inhibition
T1 sequence (P21397 1-527): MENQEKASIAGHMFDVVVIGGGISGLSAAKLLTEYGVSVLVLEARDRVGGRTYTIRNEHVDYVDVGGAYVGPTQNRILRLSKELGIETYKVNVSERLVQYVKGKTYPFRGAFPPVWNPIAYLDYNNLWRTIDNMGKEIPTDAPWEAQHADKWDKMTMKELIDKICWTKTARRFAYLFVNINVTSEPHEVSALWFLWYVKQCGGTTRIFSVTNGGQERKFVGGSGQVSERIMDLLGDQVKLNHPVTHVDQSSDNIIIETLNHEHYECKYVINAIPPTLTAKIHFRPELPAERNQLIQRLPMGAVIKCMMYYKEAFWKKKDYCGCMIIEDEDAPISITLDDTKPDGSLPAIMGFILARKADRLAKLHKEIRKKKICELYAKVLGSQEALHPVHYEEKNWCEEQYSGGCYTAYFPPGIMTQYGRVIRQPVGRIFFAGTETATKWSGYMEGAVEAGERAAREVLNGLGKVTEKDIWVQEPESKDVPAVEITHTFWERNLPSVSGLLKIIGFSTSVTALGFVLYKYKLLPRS

[2] = molecular target: human butyrylcholinesterase (Homo sapiens, UniProt P06276); assay: BChE inhibition, modified Ellman's spectrophotometric method; settings: for inhibition at 100 µM / inhibition at 1000 µM: read-out: BChE % inhibition
Chain of human butyrylcholinesterase (P06276 29-602): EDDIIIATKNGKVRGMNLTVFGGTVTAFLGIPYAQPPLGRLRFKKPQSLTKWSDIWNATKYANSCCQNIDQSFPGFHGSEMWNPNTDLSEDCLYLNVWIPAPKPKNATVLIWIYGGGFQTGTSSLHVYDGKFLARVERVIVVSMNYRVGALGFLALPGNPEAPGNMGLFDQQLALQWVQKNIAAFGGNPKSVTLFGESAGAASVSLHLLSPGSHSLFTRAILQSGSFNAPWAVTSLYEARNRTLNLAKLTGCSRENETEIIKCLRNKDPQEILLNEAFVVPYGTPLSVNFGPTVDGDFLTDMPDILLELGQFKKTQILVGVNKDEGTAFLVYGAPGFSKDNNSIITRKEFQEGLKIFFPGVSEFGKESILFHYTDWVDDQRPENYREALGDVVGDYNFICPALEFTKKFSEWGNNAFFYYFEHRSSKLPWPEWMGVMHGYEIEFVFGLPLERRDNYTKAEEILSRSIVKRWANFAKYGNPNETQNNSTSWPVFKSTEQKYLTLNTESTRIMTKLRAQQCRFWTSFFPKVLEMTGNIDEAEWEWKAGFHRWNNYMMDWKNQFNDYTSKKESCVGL

[3] = molecular target: T2, MAO-B (Homo sapiens, UniProt P27338); assay: MAO-B inhibition, in vitro fluorometric method; settings: for inhibition at 1000 µM: read-out: MAO-B % inhibition, 10^−3 M; for inhibition at 100 µM: read-out: MAO-B % inhibition, 10^−4 M
T2 sequence (P27338 1-520): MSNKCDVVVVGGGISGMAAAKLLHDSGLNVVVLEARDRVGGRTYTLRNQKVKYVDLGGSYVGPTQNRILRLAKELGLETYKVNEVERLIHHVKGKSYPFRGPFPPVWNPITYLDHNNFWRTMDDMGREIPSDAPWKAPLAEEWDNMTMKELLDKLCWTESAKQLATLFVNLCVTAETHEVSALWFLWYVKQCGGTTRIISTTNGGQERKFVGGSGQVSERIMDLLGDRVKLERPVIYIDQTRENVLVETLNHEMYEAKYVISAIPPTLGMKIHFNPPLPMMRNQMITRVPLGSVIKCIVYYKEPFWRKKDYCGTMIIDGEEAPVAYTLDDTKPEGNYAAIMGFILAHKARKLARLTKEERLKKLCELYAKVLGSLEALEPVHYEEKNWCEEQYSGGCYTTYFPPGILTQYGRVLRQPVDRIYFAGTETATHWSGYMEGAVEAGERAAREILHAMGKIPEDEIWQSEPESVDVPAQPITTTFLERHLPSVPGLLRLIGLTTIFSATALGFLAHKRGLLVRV

[4] = molecular target: Human acetylcholinesterase (Homo sapiens, UniProt P22303); assay: AChE inhibition, modified Ellman's spectrophotometric method; settings: for inhibition at 1000 µM: read-out: AChE % inhibition, 10^−3 M; for inhibition at 100 µM: read-out: AChE % inhibition, 10^−4 M
Chain of Human acetylcholinesterase (P22303 32-614): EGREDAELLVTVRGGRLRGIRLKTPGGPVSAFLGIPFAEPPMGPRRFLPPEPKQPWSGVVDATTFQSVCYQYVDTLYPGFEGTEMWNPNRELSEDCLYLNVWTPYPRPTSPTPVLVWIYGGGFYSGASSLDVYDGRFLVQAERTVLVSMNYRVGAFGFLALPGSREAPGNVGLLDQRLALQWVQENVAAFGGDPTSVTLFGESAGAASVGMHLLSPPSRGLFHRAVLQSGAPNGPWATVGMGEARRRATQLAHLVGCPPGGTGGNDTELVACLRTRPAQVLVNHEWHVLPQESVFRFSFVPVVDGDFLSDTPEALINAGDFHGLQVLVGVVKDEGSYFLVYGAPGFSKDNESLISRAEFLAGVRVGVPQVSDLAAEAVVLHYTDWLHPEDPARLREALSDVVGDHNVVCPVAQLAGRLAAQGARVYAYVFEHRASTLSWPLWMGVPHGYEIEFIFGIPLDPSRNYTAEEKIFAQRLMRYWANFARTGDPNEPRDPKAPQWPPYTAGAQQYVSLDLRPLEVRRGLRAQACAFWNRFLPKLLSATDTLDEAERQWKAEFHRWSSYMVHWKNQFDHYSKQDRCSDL

[5] = molecular target: beta amyloid 1–42 (Aβ42) (Homo sapiens, UniProt P05067); assay: fluorometric beta amyloid 1–42; settings: for inhibition at 0.01 µM / inhibition at 0.1 µM / inhibition at 1 µM / inhibition at 10 µM: read-out: Percent inhibition of beta amyloid 1–42 (Aβ42) peptide aggregation
Chain of beta amyloid 1–42 (Aβ42) (P05067 672-713): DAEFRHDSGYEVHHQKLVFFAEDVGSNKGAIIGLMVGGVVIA

| SMILES | IC50 [1] | inhibition at 100 µM [1] | inhibition at 1000 µM [1] | IC50 [2] | inhibition at 100 µM [2] | inhibition at 1000 µM [2] | IC50 [3] | IC50 [4] | inhibition at 1000 µM [4] | IC50 [5] | inhibition at 0.01 µM [5] | inhibition at 0.1 µM [5] | inhibition at 1 µM [5] | inhibition at 10 µM [5] | inhibition at 1000 µM [3] | inhibition at 100 µM [3] | inhibition at 100 µM [4] |
| --- | --- | --- | --- | --- | --- | --- | --- | --- | --- | --- | --- | --- | --- | --- | --- | --- | --- |
| CN1CCN(Cc2ccc(C(=O)Nc3nc4ccccc4s3)cc2)CC1 [4a, N-(Benzo[d]thiazol-2-yl)-4-((4-methylpiperazine-1-yl)methyl)benzamide] | > 100 µM | 38.6 ± 0.7% | 55.3 ± 0.9% | > 1000 µM | 26.5 ± 0.8% | 38.6 ± 0.7% | 0.0674 ± 0.0031 µM | 0.0563 ± 0.0025 µM | 93.3 ± 1.4% | 0.256 ± 0.011 µM | 47.4 ± 1.1% | 70.4 ± 2.8% | 86.4 ± 2.7% | 91.9 ± 3.1% | – | – | – |
| CCN1CCN(Cc2ccc(C(=O)Nc3nc4ccccc4s3)cc2)CC1 [4b, N-(Benzo[d]thiazol-2-yl)-4-((4-ethylpiperazine-1-yl)methyl)benzamide] | > 1000 µM | 36.4 ± 0.8% | 46.5 ± 0.8% | > 1000 µM | 24.4 ± 0.6% | 35.7 ± 0.9% | > 100 µM | > 100 µM | 85.6 ± 1.3% | – | – | – | – | – | 73.3 ± 1.2% | 42.3 ± 0.8% | 47.6 ± 0.8% |
| C=CCN1CCN(Cc2ccc(C(=O)Nc3nc4ccccc4s3)cc2)CC1 [4c, 4-((4-Allylpiperazine-1-yl)methyl)-N-(benzo[d]thiazol-2-yl)benzamide] | > 1000 µM | 34.6 ± 0.8% | 48.3 ± 0.9% | > 1000 µM | 20.2 ± 0.7% | 30.9 ± 0.7% | > 100 µM | > 100 µM | 82.8 ± 1.5% | – | – | – | – | – | 69.6 ± 1.2% | 40.3 ± 0.9% | 48.2 ± 0.9% |
| C#CCN1CCN(Cc2ccc(C(=O)Nc3nc4ccccc4s3)cc2)CC1 [4d, N-(Benzo[d]thiazol-2-yl)-4-((4-(prop-2-yn-1-yl)piperazine-1-yl)methyl)benzamide] | > 100 µM | 39.7 ± 0.9% | 57.6 ± 0.9% | > 1000 µM | 28.4 ± 0.9% | 37.1 ± 0.8% | 0.11 ± 0.0043 µM | 0.0896 ± 0.0032 µM | 91.6 ± 1.3% | 0.242 ± 0.0097 µM | 36.2 ± 1% | 55.2 ± 1.4% | 81.5 ± 2.5% | 89.8 ± 3% | – | – | – |
| CC(C)N1CCN(Cc2ccc(C(=O)Nc3nc4ccccc4s3)cc2)CC1 [4e, N-(Benzo[d]thiazol-2-yl)-4-((4-isopropylpiperazine-1-yl)methyl)benzamide] | > 1000 µM | 33.8 ± 0.7% | 44.7 ± 0.9% | > 1000 µM | 26.8 ± 0.7% | 39.1 ± 0.8% | > 100 µM | > 100 µM | 83.9 ± 1.7% | – | – | – | – | – | 72.7 ± 1.1% | 44.6 ± 0.8% | 46.9 ± 0.8% |
| CN(C)CCCN1CCN(Cc2ccc(C(=O)Nc3nc4ccccc4s3)cc2)CC1 [4g, N-(Benzo[d]thiazol-2-yl)-4-((4-(3-(dimethylamino)propyl)piperazine-1-yl)methyl)benzamide] | > 100 µM | 40.1 ± 0.9% | 64.9 ± 1.1% | > 1000 µM | 30.9 ± 0.8% | 41.5 ± 0.8% | > 100 µM | 0.0367 ± 0.0014 µM | 94.3 ± 1% | – | – | – | – | – | 74.2 ± 1% | 42.5 ± 0.9% | – |
| COc1ccc2sc(NC(=O)c3ccc(CN4CCN(C)CC4)cc3)nc2c1 [4h, N-(5-Methoxybenzo[d]thiazol-2-yl)-4-((4-methylpiperazine-1-yl)methyl)benzamide] | > 100 µM | 38.5 ± 0.6% | 60.5 ± 0.9% | > 1000 µM | 27 ± 0.7% | 33.5 ± 0.8% | 0.0851 ± 0.0038 µM | 0.0649 ± 0.0029 µM | 92.3 ± 1.1% | 0.296 ± 0.013 µM | 41.8 ± 1% | 64.8 ± 1.9% | 83.2 ± 3.3% | 90.7 ± 2.9% | – | – | – |
| CCN1CCN(Cc2ccc(C(=O)Nc3nc4cc(OC)ccc4s3)cc2)CC1 [4i, 4-((4-Ethylpiperazine-1-yl)methyl)-N-(5-methoxybenzo[d]thiazol-2-yl)benzamide] | > 1000 µM | 30.6 ± 0.7% | 43.8 ± 0.9% | > 1000 µM | 25.2 ± 0.9% | 39.8 ± 0.9% | > 100 µM | > 100 µM | 86.9 ± 1.2% | – | – | – | – | – | 75.6 ± 1.2% | 41.7 ± 0.9% | 48 ± 0.9% |
| C=CCN1CCN(Cc2ccc(C(=O)Nc3nc4cc(OC)ccc4s3)cc2)CC1 [4j, 4-((4-Allylpiperazine-1-yl)methyl)-N-(5-methoxybenzo[d]thiazol-2-yl)benzamide] | > 1000 µM | 32.9 ± 0.7% | 45.2 ± 0.9% | > 1000 µM | 22.6 ± 0.8% | 32.9 ± 0.8% | > 100 µM | > 100 µM | 82.5 ± 1.5% | – | – | – | – | – | 74.5 ± 1.1% | 43.5 ± 0.8% | 47.6 ± 0.8% |
| C#CCN1CCN(Cc2ccc(C(=O)Nc3nc4cc(OC)ccc4s3)cc2)CC1 [4k, N-(5-Methoxybenzo[d]thiazol-2-yl)-4-((4-(prop-2-yn-1-yl)piperazine-1-yl)methyl)benzamide] | > 100 µM | 39.9 ± 0.8% | 58.6 ± 0.9% | > 1000 µM | 26.4 ± 0.7% | 30.4 ± 0.7% | 0.124 ± 0.0058 µM | 0.102 ± 0.0048 µM | 90.3 ± 1.5% | – | 35.4 ± 1% | 48.9 ± 1.3% | 77.7 ± 2.7% | 87.1 ± 3.2% | – | – | – |
| COc1ccc2sc(NC(=O)c3ccc(CN4CCN(C(C)C)CC4)cc3)nc2c1 [4l, 4-((4-Isopropylpiperazine-1-yl)methyl)-N-(5-methoxybenzo[d]thiazol-2-yl)benzamide] | > 1000 µM | 34 ± 0.9% | 40.6 ± 0.9% | > 1000 µM | 24.3 ± 0.7% | 38.1 ± 0.9% | > 100 µM | > 100 µM | 81.7 ± 1.3% | – | – | – | – | – | 77.9 ± 1.4% | 40.7 ± 0.9% | 48.1 ± 0.9% |
| COc1ccc2sc(NC(=O)c3ccc(CN4CCN(CCCN(C)C)CC4)cc3)nc2c1 [4n, 4-((4-(3-(Dimethylamino)propyl)piperazine-1-yl)methyl)-N-(5-methoxybenzo[d]thiazol-2-yl)benzamide] | > 100 µM | 38.8 ± 0.7% | 60.1 ± 0.8% | > 1000 µM | 30.4 ± 0.9% | 40.9 ± 0.9% | > 100 µM | 0.0421 ± 0.0018 µM | 95.3 ± 1.7% | – | – | – | – | – | 70.3 ± 1.3% | 41 ± 0.9% | – |
| O=C(NCCN1CCOCC1)c1ccc(Cl)cc1 [Moc., moclobemide, reference compound] | – | 82.1 ± 2.7% | 94.1 ± 2.8% | – | – | – | – | – | – | – | – | – | – | – | – | – | – |
